Series [1] concerns transient focal cerebral ischemia (tMCAO) in mice. Nature of the series: Brain infarct volume and swelling after transient focal cerebral ischemia (tMCAO). It is filed as in vivo, mouse. The conditions noted are these: 24 h reperfusion, i.p. As for the experimental part: (§1) FIGS. 1A-1C: Efficacy of NKCC1 inhibitors in reducing ischemic infarction, cerebral edema, and the post-stroke survival in normotensive mice after tMCAO (see Example 3). (1A) Experimental protocol and data collection. Transient middle cerebral artery occlusion (tMCAO) was induced in normal C57/b6 mice. DMSO, BMT (10 mg/kg body weight), STS5 (13 mg/kg) or STS66 (12 mg/kg) was administered via intraperitoneal injection (i.p.) as described in method. (1 B) Representative TTC staining images in normotensive mice at 24 h reperfusion with quantitative analysis of infarct volume. Data are mean±SD, n=6-13 (male, n=3-9; female, n=3-4, *p<0.05). Scale: 5 mm. (1C) Percentage hemisphere swelling at 24 h reperfusion. Data are mean±SD, n=6-13, *p<0.05. (1D) Body weight change during 1-14 days after tMCAO. Data are mean±SD, n=5-9 (male, n=4; female, n=2, *p<0.05). (1E) Survival curve during 1-14 day after tMCAO. Data are mean±SD, n=5-9 (male, n=3-7; female, n=2, *p<0.05).
(§2) Transient focal cerebral ischemia was induced in mice by intraluminal occlusion of the left middle cerebral artery (MCA) for 50 min as described previously (Chen H et al., 2005). Mice were anesthetized with 3% isoflurane in 70%: 30% N2O/O2 until they were unresponsive to the tail pinch test. Animals were then fitted with a nose cone blowing 1.5% isoflurane for anesthesia maintenance. The left common carotid artery was exposed and the occipital artery branches of the external carotid artery were isolated and coagulated. The internal carotid artery was isolated and the extracranial branch was dissected and ligated. A rubber silicon-coated monofilament suture (6-0) was introduced into the internal carotid artery lumen and gently advanced approximately 8-9 mm to block the MCA blood flow for 50 min. The rectal temperature was maintained at 37.0±0.5° C. during surgery through a temperature-controlled heating pad. Achievement of ischemia was confirmed by monitoring regional cerebral blood flow (rCBF) with laser speckle contrast imager (Pericam). For reperfusion, the suture was withdrawn after the MCAO. The incision was closed and the mouse recovered under a heating lamp to maintain the core temperature (36.0-37.0° C.) during the 30-60 min recovery period. After recovery, animals were returned to their cages with free access to food and water.
(§3) Vehicle: DMSO (2 ml/kg body weight/day), the NKCC1 inhibitor bumetanide (BMT, 10 mg/kg body weight/day in DMSO), bumetanide's prodrug STS5 (13 mg/kg body weight/day in DMSO), or the novel NKCC1 inhibitor STS66 according to the invention (12 mg/kg body weight/day in DMSO) was administered via intraperitoneal injection (i.p). The initial half dose of the drugs (BMT, STS5, STS66) was given at 3 h after the onset of reperfusion and the second half dose at 8 h reperfusion in the tMCAO model.
At 24 h post-reperfusion, mice were anesthetized with 5% isoflurane and then decapitated. Coronal brain slices (2 mm thickness) were stained with 1% 2,3,5-triphenyltetrazolium chloridemonohydrate (TTC) for 20-30 min and brain slices were scanned (Begum G et al., 2015). Ischemic lesions were traced in each slice in a blinded manner, and the total volume of infarction was calculated with correction for edema, as described by Swanson et al., 1990 using ImageJ software. Infarct areas were summed across all slices and multiplied by slice thickness to yield total infarct volume (mm^3). Brain swelling was determined with the following formula. For tMCAO: swelling (% contralateral hemispheric volume)=[(ipsilateral hemispheric volume)−(contralateral hemispheric volume)]/(contralateral hemispheric volume)×100, as described before (Guo Q G et al., 2009; Sunghee Cho et al., 2005).

Series [2] has the same test system. Put plainly: Body weight and survival 1-14 days after tMCAO. It is filed as in vivo, mouse. As for the experimental part: as §1, §2, §3

As to `CCCCNc1cc(C(=O)OCCN(C)C)cc(S(N)(=O)=O)c1Oc1ccccc1` [STS5], in series [1] (female mice only, STS5 13, STS66 12 mg/kg/day), the “infarct volume in female mice” value worked out at 46.9±5.0 mm^3. Also, the “hemispheric edema (hemisphere swelling)” value in series [1] (normotensive C57BL/6j mice, half dose at 3 h and 8 h reperfusion, BMT 10, STS5 13, STS66 12 mg/kg/day, mean±SD) is 12.6±4.5%. In addition, the infarct volume in series [1] (normotensive C57BL/6j mice, male and female combined, half dose at 3 h and 8 h reperfusion, BMT 10, STS5 13, STS66 12 mg/kg/day, mean±SD) is listed as 49.5±20.6 mm^3. Also, the body weight changes entry in series [2] (1-14 days after tMCAO, versus DMSO Veh control) is “no differences in the body weight changes”. Moreover, in series [2] (between 1-14 days post tMCAO, BMT 10, STS5 13, STS66 12 mg/kg/day i.p.), the mortality rate is ~66.7%.

The values above are taken from patent US20260132103A1, “Bumetanide Derivatives for the Therapy of Stroke and Other Neurological Diseases/Disorders Involving NKCCs” (University of Pittsburgh - Of the Commonwealth System of …, priority 2018, published 2026).
